According to US11214803B2, “Modulators of YAP1 expression” (Ionis Pharmaceuticals, Inc., priority 2019, dated 2022):
Where “and” joins values, the source holds several entries; their conditions need not be identical. Equal entries are not always repeated. Strand notation (5' to 3'): a small letter for the sugar, then the base; units joined by * are phosphorothioate-linked, units joined directly phosphodiester-linked; [ ] holds rarer units or linkages, { } end groups; capitals alone tell only the bases. k = constrained ethyl (cEt); [5mC] = 5-methylcytosine; d = 2'-deoxy (DNA)

Tests used:
Yap1 mRNA [1] = test: Yap1 mRNA in NCI H747 cells, RNA analysis (Example 31); assay type: cell-based, human; settings: free uptake, approximately 48 hours
Description: Modified oligonucleotides described in the studies above were tested at various doses in colorectal adenocarcinoma cell line NCI H747. A control oligonucleotide 792169 was also tested.
(§1) Cultured NCI H747 cells at a density of 10,000 cells per well were treated using free uptake with modified oligonucleotides diluted to concentrations described in the tables below. After approximately 48 hours, Yap1 mRNA levels were measured as previously described using the Human Yap1 primer-probe set RTS4814. Yap1 mRNA levels were normalized to actin-beta content, as measured by primer probe set RTS5002. Results are presented in the tables below as percent control of the amount of Yap1 mRNA relative to untreated control cells (% UTC).

CAL33 cells = test: Cell proliferation assay in CAL33 cells, CellTiter-Glo (Example 36); assay type: cell-based, human; settings: free uptake, approximately 144 hours
Description: Modified oligonucleotides described in the studies above were tested at various doses in tongue squamous cell carcinoma line CAL33. A control oligonucleotide 792169, described herein above, was also tested.
(§2) Cultured CAL33 cells at a density of 1000 cells/well were treated using free uptake with modified oligonucleotides diluted to concentrations described in the tables below. After approximately 144 hours, cell proliferation was measured using the luminescent cell viability CellTiter-Glo® 2.0 Assay (Promega). Results are presented in the tables below as percent control of the amount of luminescence in samples treated with modified oligonucleotides relative to untreated control cells (% UTC).

SCC-15 cells = test: Cell proliferation assay in SCC-15 cells, CellTiter-Glo (Example 41); assay type: cell-based, human; settings: free uptake, approximately 144 hours
Description: Modified oligonucleotides described in the studies above were tested at various doses in tongue squamous cell carcinoma cell line SCC-15. A control oligonucleotide 792169, described herein above, was also tested.
as §2, with “SCC-15” for “CAL33”

Yap1 mRNA [2] = test: Yap1 mRNA in SNU-1076 cells, RNA analysis (Example 45); assay type: cell-based, human; settings: free uptake, approximately 48 hours
Description: Modified oligonucleotides described in the studies above were tested at various doses in upper aerodigestive tract/laryngeal squamous cell carcinoma line SNU-1076. A control oligonucleotide 792169, described herein above, was also tested.
as §1, with “SNU-1076” for “NCI H747”, “5000” for “10,000”

SNU-1214 cells = test: Cell proliferation assay in SNU-1214 cells, CellTiter-Glo (Example 46); assay type: cell-based, human; settings: free uptake, approximately 144 hours
Description: Modified oligonucleotides described in the studies above were tested at various doses in laryngeal squamous cell carcinoma cell line […]. A control oligonucleotide 792169, described herein above, was also tested.
as §2, with “SNU-1214” for “CAL33”

Yap1 mRNA [3] = test: Dose-dependent inhibition of human Yap1 in A-431 cells (Example 8, 10,000 cells per well, RTS4814); assay type: cell-based; settings: for % UTC (Yap1 mRNA) / IC50: A-431 cells; for Yap1 mRNA, % UTC: A-431 cells, 10,000 cells per well
Summary of the method: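 Yap1 mRNA, normalized to RIBOGREEN total RNA and expressed as % untreated control, was read with RTS4814 about 48 h after free-uptake oligonucleotide treatment of A-431 cells at 10,000 cells/well. IC50 derived by linear regression of log/linear data.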

[4] = Tolerability in CD-1 mice, plasma chemistry markers (Example 18); assay type: in vivo; settings: male CD-1 mice, 50 mg/kg s.c. twice a week (total of 9 treatments), day 34
Description: CD-1 mice were treated with modified oligonucleotides selected from studies described above and evaluated for changes in the levels of various plasma chemistry markers.
(§3) Groups of four male CD-1 mice at 5-6 weeks of age (obtained from Charles River) were injected subcutaneously twice a week for four weeks (for a total of 9 treatments) with 50 mg/kg of modified oligonucleotides. One group of male CD-1 mice was injected with PBS. Mice were euthanized on day 34 post start of treatment (24 hours following the final administration).

[5] = Tolerability in CD-1 mice, body and organ weights (Example 18); assay type: in vivo; settings: male CD-1 mice, 50 mg/kg s.c. twice a week (total of 9 treatments), end of study (day 34)
Description: as §3
Body weights of CD-1 mice were measured at the end of the study, and the average body weight for each group is presented in the table below. Modified oligonucleotides that caused any changes in organ weights outside the expected range for modified oligonucleotides were excluded from further studies.

[6] = rat, in vivo, sc, 50 mg/kg
Description: Male Sprague-Dawley rats were maintained on a 12-hour light/dark cycle and fed ad libitum with Purina normal rat chow. Groups of 4 Sprague-Dawley rats each were weekly injected subcutaneously with 50 mg/kg of Ionis oligonucleotide for 6 weeks (total 7 doses). Forty-eight hours after the last dose, the rats were euthanized; and organs, urine and plasma were harvested for further analysis.
To evaluate the effect of Ionis oligonucleotides on kidney function, urinary levels of total protein and creatinine were measured using an automated clinical chemistry analyzer (Hitachi Olympus AU400c, Melville, N.Y.).

| Substance | human Yap1 mRNA expression (Yap1 mRNA [1]; 0.04 μM) [% UTC] | human Yap1 mRNA expression (Yap1 mRNA [1]; 0.2 μM) [% UTC] | human Yap1 mRNA expression (Yap1 mRNA [1]; 1 μM) [% UTC] | human Yap1 mRNA expression (Yap1 mRNA [1]; 5 μM) [% UTC] | Antiproliferative effect (cell proliferation, luminescence) (CAL33 cells; 0.04 μM) [% UTC] | Antiproliferative effect (cell proliferation, luminescence) (CAL33 cells; 0.2 μM) [% UTC] | Antiproliferative effect (cell proliferation, luminescence) (CAL33 cells; 1 μM) [% UTC] | Antiproliferative effect (cell proliferation, luminescence) (CAL33 cells; 5 μM) [% UTC] | Antiproliferative effect (cell proliferation, luminescence) (SCC-15 cells; 0.04 μM) [% UTC] | Antiproliferative effect (cell proliferation, luminescence) (SCC-15 cells; 0.2 μM) [% UTC] | Antiproliferative effect (cell proliferation, luminescence) (SCC-15 cells; 1 μM) [% UTC] | Antiproliferative effect (cell proliferation, luminescence) (SCC-15 cells; 5 μM) [% UTC] | human Yap1 mRNA expression (Yap1 mRNA [2]; 0.04 μM) [% UTC] | human Yap1 mRNA expression (Yap1 mRNA [2]; 0.2 μM) [% UTC] | human Yap1 mRNA expression (Yap1 mRNA [2]; 1 μM) [% UTC] | human Yap1 mRNA expression (Yap1 mRNA [2]; 5 μM) [% UTC] | Antiproliferative effect (cell proliferation, luminescence) (SNU-1214 cells; 0.04 μM) [% UTC] | Antiproliferative effect (cell proliferation, luminescence) (SNU-1214 cells; 0.2 μM) [% UTC] | Antiproliferative effect (cell proliferation, luminescence) (SNU-1214 cells; 1 μM) [% UTC] | Antiproliferative effect (cell proliferation, luminescence) (SNU-1214 cells; 5 μM) [% UTC] | further results |
| --- | --- | --- | --- | --- | --- | --- | --- | --- | --- | --- | --- | --- | --- | --- | --- | --- | --- | --- | --- | --- | --- |
| CGCCGATAAGGTACAC (cEt gapmer, phosphorothioate backbone, further chemistry not given here) [ION 792169, reference compound] | 94 | 83 | 87 | 100 | 92 | 93 | 81 | 67 | 93 | 92 | 89 | 71 | 89 | 98 | 102 | 107 | 105 | 90 | 96 | 72 |  |
| 715487 (kA*kT*kT*dA*d[5mC]*dT*dT*d[5mC]*dA*dT*dA*dG*d[5mC]*kT*kT*kA) [compound 715487] | 83 | 70 | 49 | 30 | 89 | 79 | 61 | 37 | 87 | 66 | 47 | 28 | 89 | 67 | 31 | 11 | 93 | 69 | 52 | 38 |  |
| 958499 (ATTAGAGTATGTGGCA; 3-10-3 cEt gapmer, further chemistry not given here) [compound 958499] |  |  |  |  |  |  |  |  |  |  |  |  |  |  |  |  |  |  |  |  | % UTC (Yap1 mRNA) (Yap1 mRNA [3]; 31.3 nM): 36 % UTC and 37 % UTC; % UTC (Yap1 mRNA) (Yap1 mRNA [3]; 125.0 nM): 5 % UTC and 4 % UTC; % UTC (Yap1 mRNA) (Yap1 mRNA [3]; 500.0 nM): 2 % UTC; % UTC (Yap1 mRNA) (Yap1 mRNA [3]; 2000.00 nM): 2 % UTC; IC50 (Yap1 mRNA [3]; Yap1 mRNA): < 20 nM; ALT [4]: 79 U/L; AST [4]: 88 U/L; BUN [4]: 24 mg/dL; TBIL [4]: 0.18 mg/dL; Kidney weight [5]: 0.57 g; Liver weight [5]: 2.20 g; Spleen weight [5]: 0.22 g; body weight [5]: 39 g; URINE P/C ratio (total protein to creatinine ratio) [6]: 5 |
| 1198440 (AAGTGTATGTCAGAAG; cEt, 2'-MOE, 5-methylcytosine, phosphorothioate modifications, further chemistry not given here) [compound 1198440] | 73 | 53 | 21 | 9 | 84 | 67 | 58 | 44 | 72 | 54 | 42 | 32 | 83 | 43 | 11 | 3 | 84 | 72 | 53 | 49 |  |
| 1076453 (GTAATATTGCAATCTG; 3-10-3 cEt gapmer, further chemistry not given here) [compound 1076453] |  |  |  |  |  |  |  |  |  |  |  |  |  |  |  |  |  |  |  |  | Yap1 mRNA, % UTC (Yap1 mRNA [3]; 31.3 nM, free uptake, approximately 48 hours, RTS4814): 11 % UTC; Yap1 mRNA, % UTC (Yap1 mRNA [3]; 125.0 nM, free uptake, approximately 48 hours, RTS4814): 2 % UTC; Yap1 mRNA, % UTC (Yap1 mRNA [3]; 500.0 nM, free uptake, approximately 48 hours, RTS4814): 1 % UTC; Yap1 mRNA, % UTC (Yap1 mRNA [3]; 2000.00 nM, free uptake, approximately 48 hours, RTS4814): 2 % UTC; IC50 (Yap1 mRNA [3]; free uptake, approximately 48 hours, RTS4814, linear regression on log/linear plot): < 20 nM; ALT [4]: 56 U/L; AST [4]: 113 U/L; BUN [4]: 20 mg/dL; TBIL [4]: 0.24 mg/dL; Kidney weight [5]: 0.56 g; Liver weight [5]: 1.91 g; Spleen weight [5]: 0.20 g; body weight [5]: 38 g; URINE P/C ratio (total protein to creatinine ratio) [6]: 5 |
